Reference: patent US20190357555A1, “BLUEBERRY FRESH-KEEPING AGENT, PREPARATION METHOD AND APPLICATIONS THEREOF” (ZHEJIANG ACADEMY OF AGRICULTURAL SCIENCES, priority 2018, published 2019)

Tested on: Botrytis cinerea
Test: Filter-paper inhibition zone test against Botrytis cinerea
Format: cell-based
Details: PDA, 28° C., 6 days; for inhibition zone diameter: filter paper 1 cm soaked 4 hours; for inhibitory effect on Botrytis cinerea (in words): filter paper test
Procedure: Test species and reagents: Botrytis cinerea was isolated from the picked blueberries in the laboratory, and chitosan and ascorbic acid were purchased commercially.
Medium and culture conditions: a PDA medium was used, and cultured at 28° C. for 6 days.
Antibacterial effect test: after Botrytis cinerea was activated with the PDA medium, lawn of Botrytis cinerea was picked up and suspended with sterile water to obtain a bacterial suspension. Scraps of filter paper with a diameter of 1 cm were made from a highly absorbent filter paper by using a puncher, and the scraps of filter paper were subjected to dry heat sterilization and soaked in the Galla chinensis extract, a chitosan solution, and an ascorbic acid solution, respectively, and dried for use after 4 hours soaking. The solid PDA medium was melted, poured into a culture dish, cooled and solidified, then 0.1 mL of the bacterial suspension was added and uniformly coated, and then the scraps of filter paper soaked with the above solutions were attached to the bacteria-containing culture dish, and a scrap of filter paper impregnated with sterile water was used as a control. The culture dish treated above was cultured at 28° C. for 6 days, and the diameters of inhibition zones were measured.

Row | Compound | inhibition zone diameter [mm] | inhibitory effect on Botrytis cinerea (in words)
1 | O=C1O[C@H]([C@@H](O)CO)C(O)=C1O [ascorbic acid] | 0.00 | no inhibitory effect
2 | O=C(O)c1cc(O)c(O)c(O)c1 [gallic acid] | 0.00 | no inhibitory effect
